Several values for one entry are separate records, joined by “and”; a condition that tells them apart may be missing. Equal entries are not always repeated.

For assay [1], the target named is T1, WT HMGCR (Cricetulus griseus, UniProt P00347).
T1 construct: expressed in transfected cells; host or cells: CHO-7
T1 sequence (P00347 1-887): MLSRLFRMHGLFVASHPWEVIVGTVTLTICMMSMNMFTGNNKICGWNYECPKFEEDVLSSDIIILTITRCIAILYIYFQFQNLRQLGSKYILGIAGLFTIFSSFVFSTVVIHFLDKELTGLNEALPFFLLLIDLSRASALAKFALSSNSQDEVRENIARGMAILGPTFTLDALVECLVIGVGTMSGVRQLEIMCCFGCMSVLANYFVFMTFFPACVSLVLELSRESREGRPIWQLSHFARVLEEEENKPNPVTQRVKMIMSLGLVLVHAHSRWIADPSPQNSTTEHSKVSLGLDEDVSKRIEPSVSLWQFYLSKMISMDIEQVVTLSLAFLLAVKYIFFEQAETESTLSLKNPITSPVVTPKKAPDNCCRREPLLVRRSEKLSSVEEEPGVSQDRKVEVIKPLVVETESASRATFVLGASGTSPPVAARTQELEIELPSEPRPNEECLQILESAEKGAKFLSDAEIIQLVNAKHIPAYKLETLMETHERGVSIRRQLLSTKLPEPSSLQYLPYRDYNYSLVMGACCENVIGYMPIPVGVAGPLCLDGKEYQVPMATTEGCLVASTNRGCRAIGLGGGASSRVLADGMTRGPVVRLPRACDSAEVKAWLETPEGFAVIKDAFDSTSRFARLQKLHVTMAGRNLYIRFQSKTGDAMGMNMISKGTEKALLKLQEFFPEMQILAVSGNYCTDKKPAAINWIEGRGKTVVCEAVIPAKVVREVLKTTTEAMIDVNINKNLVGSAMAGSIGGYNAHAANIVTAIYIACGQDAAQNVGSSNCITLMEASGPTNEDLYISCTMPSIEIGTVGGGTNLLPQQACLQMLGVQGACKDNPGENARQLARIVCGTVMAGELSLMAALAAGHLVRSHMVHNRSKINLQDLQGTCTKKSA
T1 sequence (O15503 1-277 partner): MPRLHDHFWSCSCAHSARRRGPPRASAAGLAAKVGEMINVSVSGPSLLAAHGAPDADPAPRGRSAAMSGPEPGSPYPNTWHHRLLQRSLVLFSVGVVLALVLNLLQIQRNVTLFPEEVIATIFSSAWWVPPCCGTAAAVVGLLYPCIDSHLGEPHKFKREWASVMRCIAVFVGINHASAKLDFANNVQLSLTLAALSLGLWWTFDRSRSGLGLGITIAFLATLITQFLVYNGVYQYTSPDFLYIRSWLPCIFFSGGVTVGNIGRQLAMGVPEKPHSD
Nature of the assay: Degradation of transfected wild-type HMGCR (with Insig-1) in CHO-7 cells. It is filed as cell-based. The following applies: cells co-expressing wild-type HMGCR and Insig-1, 5 h. The protocol:
HMGCR protein of DMSO-treated cells was defined as 100. […] Lysates were immunoprecipitated and pellets were probed for anti-ubiquitin (P4D1) and anti-HMGCR (A9). e CHO-7 cells were transfected with indicated plasmids and treated as in d. Lysates were immunoprecipitated with anti-Flag M2 beads, and pellets were probed for anti-ubiquitin (HA) and anti-HMGCR (Flag). f CHO-7 cells were transfected with indicated plasmids, then treated with Cmpd 81 for 5 h. […] Data are from three independent experiments and presented as mean ± SD. Source data are provided as a Source Data File.
Cells were harvested and homogenized in the RIPA buffer (50 mM Tris-HCl, pH 8.0, 150 mM NaCl, 2 mM MgCl2, 1.5% NP-40, 0.1% SDS, and 0.5% sodium deoxycholate) supplemented with protease cocktail inhibitor, 10 μM MG-132, 10 μg ml^−1 leupeptin and 1 mM phenylmethylsulfonyl fluoride. The protein concentrations of lysates were determined using BCA method (Beyotime). […] Western blot images were captured by Amersham Imager 600 (GE Healthcare), and integrated optical intensities of each band were quantified by Image-Pro Plus 6 software (Media Cybernetics). […]

For assay [2], the target named is T2, WT HMGCR (Cricetulus griseus, UniProt P00347).
T2 construct: expressed in transfected cells; host or cells: Huh7
T2 sequence (P00347 1-887): T1 sequence (P00347 1-887)
Nature of the assay: Immunoblotting of overexpressed wild type HMGCR in Huh7 cells. It is filed as cell-based. Particulars: 1 µM lovastatin. As to the method:
Cells were harvested and homogenized in the RIPA buffer (50 mM Tris-HCl, pH 8.0, 150 mM NaCl, 2 mM MgCl2, 1.5% NP-40, 0.1% SDS, and 0.5% sodium deoxycholate) supplemented with protease cocktail inhibitor, 10 μM MG-132, 10 μg ml^−1 leupeptin and 1 mM phenylmethylsulfonyl fluoride. The protein concentrations of lysates were determined using BCA method (Beyotime). Samples were mixed with the membrane protein solubilization buffer (62.5 mM Tris-HCl, pH 6.8, 15% SDS, 8 M urea, 10% glycerol, and 100 mM DTT) plus the 4× loading buffer (150 mM Tris-HCl, pH 6.8, 12% SDS, 30% glycerol, 6% 2-mercaptoethanol, and 0.02% bromophenol blue) and incubated for 30 min at 37 °C. Proteins were resolved by SDS-PAGE and transferred to nitrocellulose membranes (GE Healthcare). Immnoblots were blocked with 5% non-fat milk in TBS containing 0.075% Tween-20 (TBST) and probed with indicated antibodies overnight at 4 °C. After washing in TBST for five times, blots were incubated with HRP-conjugated secondary antibodies for 2 h at room temperature. Immunoreactivity was developed with Clarity Western ECL chemiluminescent substrates (170–5061, Bio-Rad). Western blot images were captured by Amersham Imager 600 (GE Healthcare), and integrated optical intensities of each band were quantified by Image-Pro Plus 6 software (Media Cybernetics). […]
RT-qPCR. Quantifications of the relative mRNA levels of indicated SREBP target […]
For orientation: In western blotting, separated proteins are transferred to a membrane and probed.

Another assay concerns Hmgcr mRNA. Nature of the assay: RT-qPCR of hepatic Hmgcr mRNA of gavaged mice. It is filed as in vivo. The following applies: C57BL/6J mice, 60 mg/kg/day gavage once daily 7 days. The protocol: Cells were treated as described in corresponding figure legends, then total RNA was extracted from cells or mouse livers using TRI Reagent ([…], Sigma-Aldrich). Equal amounts of RNA from cells or mice receiving the same treatment were pooled were used for cDNA synthesis with oligo dT and reverse transcriptase MLV (Promega). Gene expression was analyzed by quantitative real-time PCR on a Stratagene […] Systems. The primers used were listed in Supplementary Tables 2-4. Male C57BL/6 mice (8-week-old) were obtained from Shanghai Laboratory Animal Company (SLAC) (Shanghai, China). Male Ldlr^-/- mice (8-week-old) were obtained from Nanjing Biomedical Research Institute of Nanjing University (Nanjing, China). […] Mice were maintained in a pathogen-free environment and kept on a 12-h light/dark schedule. Mice were gavaged as described in figure legends with saline containing 0.5% methyl cellulose and 0.5% Tween-80. All mice were used in accordance with the guidelines approved by the Institutional Animal Care and Use Committee of Wuhan University.
In general terms: Quantitative PCR measures a nucleic acid by following its amplification.

With `C=CCC(O)(CC=C)CCCC(C)C1CCC2C3C(O)C=C4C(C)(C)C(O)CCC4(C)C3CCC12C` (centres unmarked) [Cmpd 81], the “protein level of transfected wild-type HMGCR” value on WT HMGCR [1] is listed as “a reduction of the protein level”.
Turning to `CC[C@H](C)C(=O)O[C@H]1C[C@@H](C)C=C2C=C[C@H](C)[C@H](CC[C@@H]3C[C@@H](O)CC(=O)O3)[C@H]21` [Lovastatin, lovastatin], the “elevation of overexpressed WT HMGCR protein” value on WT HMGCR [2] was determined as 6 fold. For the same molecule, in the assay with Hmgcr mRNA (vehicle = 1), the “hepatic Hmgcr mRNA level, mean” value was 2.5 ± 0.2 fold and 2.537 fold; the “hepatic Hmgcr mRNA level, single values” is 2.5 and 2.78 and 2.33. The “hepatic Hmgcr mRNA level, mean” value with Hmgcr mRNA (vehicle = 1, listed as lovastatin) is on record as 2.5 fold.

Source of the values: article PMC6277434, “Discovery of a potent HMG-CoA reductase degrader that eliminates statin-induced reductase accumulation and lowers cholesterol” (Nature Communications, 2018).
